Legend:
Assay in all cases: KINOMEscan competition binding
Conditions in all cases: compound 10.0 µM
AURKC (human) = AURKC (human) (UniProt Q9UQB9)
BMPR1B (human) = BMPR1B (human) (UniProt O00238)
CAMK1D (human) = CAMK1D (human) (UniProt Q8IU85)
CAMK1G (human) = CAMK1G (human) (UniProt Q96NX5)
CAMK2B (human) = CAMK2B (human) (UniProt Q13554)
CAMK4 (human) = CAMK4 (human) (UniProt Q16566)
CDK15 (human) = CDK15 (human) (UniProt Q96Q40)
CDK18 (human) = CDK18 (human) (UniProt Q07002)
CDK9 (human) = CDK9 (human) (UniProt P50750)
CDK9 (human), sequence (P50750 whole entry, looked up): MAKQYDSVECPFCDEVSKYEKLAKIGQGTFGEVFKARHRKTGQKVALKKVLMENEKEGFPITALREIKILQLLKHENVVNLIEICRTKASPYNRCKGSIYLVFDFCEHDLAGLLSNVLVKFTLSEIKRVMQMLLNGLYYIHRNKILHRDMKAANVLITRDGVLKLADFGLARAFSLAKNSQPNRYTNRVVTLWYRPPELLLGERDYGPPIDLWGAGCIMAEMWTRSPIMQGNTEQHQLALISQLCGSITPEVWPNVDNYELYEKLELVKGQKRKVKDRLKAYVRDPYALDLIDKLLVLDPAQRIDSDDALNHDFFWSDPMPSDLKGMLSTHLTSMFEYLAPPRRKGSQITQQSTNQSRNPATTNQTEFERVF

CLK1 (human) = CLK1 (human) (UniProt P49759)
CLK4 (human) = CLK4 (human) (UniProt Q9HAZ1)
DCLK1 (human) = DCLK1 (human) (UniProt O15075)
FGR (human) = FGR (human) (UniProt P09769)
IGF1R (human) = IGF1R (human) (UniProt P08069)
IKBKE (human) = IKBKE (human) (UniProt Q14164)
[1] = biological target: JAK1 JH1 catalytic (human) (UniProt P23458)
MAP2K1 (human) = MAP2K1 (human) (UniProt Q02750)
MAP2K1 (human), sequence (Q02750 whole entry, looked up): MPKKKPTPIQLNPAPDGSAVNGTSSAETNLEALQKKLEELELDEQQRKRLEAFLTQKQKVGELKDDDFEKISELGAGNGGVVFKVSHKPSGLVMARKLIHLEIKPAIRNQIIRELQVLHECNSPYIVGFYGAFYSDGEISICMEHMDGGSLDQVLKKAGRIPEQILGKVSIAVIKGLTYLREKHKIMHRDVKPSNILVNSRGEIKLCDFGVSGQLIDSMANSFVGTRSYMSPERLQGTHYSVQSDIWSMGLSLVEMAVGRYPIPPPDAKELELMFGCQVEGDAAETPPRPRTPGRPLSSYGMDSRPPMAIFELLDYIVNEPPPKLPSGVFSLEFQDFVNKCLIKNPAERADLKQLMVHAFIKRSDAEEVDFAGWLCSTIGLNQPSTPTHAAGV

MAP3K7 (human) = MAP3K7 (human) (UniProt O43318)
MARK2 (human) = MARK2 (human) (UniProt Q7KZI7)
MARK2 (human), sequence (Q7KZI7 whole entry, looked up): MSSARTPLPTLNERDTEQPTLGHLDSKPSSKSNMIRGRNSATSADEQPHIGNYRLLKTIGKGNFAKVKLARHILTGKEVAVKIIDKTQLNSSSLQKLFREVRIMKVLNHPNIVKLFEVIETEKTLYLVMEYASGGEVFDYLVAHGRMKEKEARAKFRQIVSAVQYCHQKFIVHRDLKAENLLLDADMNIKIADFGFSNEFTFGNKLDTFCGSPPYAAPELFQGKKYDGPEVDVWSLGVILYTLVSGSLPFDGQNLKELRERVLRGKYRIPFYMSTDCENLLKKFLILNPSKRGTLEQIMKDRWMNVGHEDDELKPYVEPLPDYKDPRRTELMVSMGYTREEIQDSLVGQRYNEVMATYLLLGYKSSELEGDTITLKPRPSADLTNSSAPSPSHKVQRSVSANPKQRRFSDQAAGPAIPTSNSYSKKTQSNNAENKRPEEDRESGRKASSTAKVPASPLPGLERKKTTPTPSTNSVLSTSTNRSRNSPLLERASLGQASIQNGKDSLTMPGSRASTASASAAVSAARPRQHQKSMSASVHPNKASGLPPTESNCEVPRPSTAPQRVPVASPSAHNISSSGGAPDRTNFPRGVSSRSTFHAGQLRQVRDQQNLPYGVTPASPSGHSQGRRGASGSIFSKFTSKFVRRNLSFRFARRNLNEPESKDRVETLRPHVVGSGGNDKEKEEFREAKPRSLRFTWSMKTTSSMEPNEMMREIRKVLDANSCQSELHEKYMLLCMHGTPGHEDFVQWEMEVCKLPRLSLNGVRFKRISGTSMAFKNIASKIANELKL

MINK1 (human) = MINK1 (human) (UniProt Q8N4C8)
NEK5 (human) = NEK5 (human) (UniProt Q6P3R8)
NEK5 (human), sequence (Q6P3R8 whole entry, looked up): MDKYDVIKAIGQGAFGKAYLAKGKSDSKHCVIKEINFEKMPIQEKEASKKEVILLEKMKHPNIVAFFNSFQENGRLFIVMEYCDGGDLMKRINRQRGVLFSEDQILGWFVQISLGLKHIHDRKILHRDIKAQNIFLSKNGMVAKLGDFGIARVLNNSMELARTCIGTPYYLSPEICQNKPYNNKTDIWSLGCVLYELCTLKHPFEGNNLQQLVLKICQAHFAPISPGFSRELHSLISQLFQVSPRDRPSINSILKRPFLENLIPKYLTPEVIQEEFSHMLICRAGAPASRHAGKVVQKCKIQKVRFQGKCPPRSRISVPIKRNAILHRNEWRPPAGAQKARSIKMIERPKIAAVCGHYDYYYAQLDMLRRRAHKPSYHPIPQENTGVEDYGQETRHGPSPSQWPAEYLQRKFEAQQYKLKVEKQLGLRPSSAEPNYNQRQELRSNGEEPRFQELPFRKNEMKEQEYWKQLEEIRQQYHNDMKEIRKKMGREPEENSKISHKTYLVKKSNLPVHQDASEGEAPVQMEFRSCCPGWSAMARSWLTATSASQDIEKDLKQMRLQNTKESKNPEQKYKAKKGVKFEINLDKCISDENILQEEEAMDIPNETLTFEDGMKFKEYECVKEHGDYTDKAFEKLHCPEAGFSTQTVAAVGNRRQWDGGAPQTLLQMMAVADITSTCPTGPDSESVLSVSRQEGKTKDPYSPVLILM

PIM3 (human) = PIM3 (human) (UniProt Q86V86)
PKMYT1 (human) = PKMYT1 (human) (UniProt Q99640)
PLK4 (human) = PLK4 (human) (UniProt O00444)
PLK4 (human), sequence (O00444 whole entry, looked up): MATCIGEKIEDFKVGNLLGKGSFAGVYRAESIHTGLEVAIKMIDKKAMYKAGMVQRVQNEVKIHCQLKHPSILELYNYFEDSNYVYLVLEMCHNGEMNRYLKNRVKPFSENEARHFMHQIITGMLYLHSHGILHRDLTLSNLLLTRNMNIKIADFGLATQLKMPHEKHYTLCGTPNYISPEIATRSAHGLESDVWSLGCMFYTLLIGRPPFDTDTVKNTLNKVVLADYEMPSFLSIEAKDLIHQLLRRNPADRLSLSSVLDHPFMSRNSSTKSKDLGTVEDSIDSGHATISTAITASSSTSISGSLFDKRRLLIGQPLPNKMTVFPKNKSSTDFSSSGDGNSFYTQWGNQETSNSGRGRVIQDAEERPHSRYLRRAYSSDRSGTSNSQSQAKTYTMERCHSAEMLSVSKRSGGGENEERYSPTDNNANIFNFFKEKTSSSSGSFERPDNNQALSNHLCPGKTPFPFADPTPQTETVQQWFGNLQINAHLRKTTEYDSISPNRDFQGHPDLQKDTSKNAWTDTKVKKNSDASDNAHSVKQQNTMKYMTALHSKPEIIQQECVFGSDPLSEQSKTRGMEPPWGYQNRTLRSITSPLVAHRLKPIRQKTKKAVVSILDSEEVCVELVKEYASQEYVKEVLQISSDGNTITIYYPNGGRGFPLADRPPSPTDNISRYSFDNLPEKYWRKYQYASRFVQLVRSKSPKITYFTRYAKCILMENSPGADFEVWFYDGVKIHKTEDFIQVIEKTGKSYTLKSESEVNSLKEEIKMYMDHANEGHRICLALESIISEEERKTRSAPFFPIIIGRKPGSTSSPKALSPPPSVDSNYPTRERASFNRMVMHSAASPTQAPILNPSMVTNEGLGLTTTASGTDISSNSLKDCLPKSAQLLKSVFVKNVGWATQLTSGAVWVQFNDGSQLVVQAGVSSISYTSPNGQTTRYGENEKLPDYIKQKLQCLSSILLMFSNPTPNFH

PRKD2 (human) = PRKD2 (human) (UniProt Q9BZL6)
PTK2 (human) = PTK2 (human) (UniProt Q05397)
RPS6KA6 KD1 (human) = RPS6KA6 KD1 (human) (UniProt Q9UK32)
RPS6KA6 KD2 (human) = RPS6KA6 KD2 (human) (UniProt Q9UK32)
SLK (human) = SLK (human) (UniProt Q9H2G2)
STK3 (human) = STK3 (human) (UniProt Q13188)
STK32C (human) = STK32C (human) (UniProt Q86UX6)
TIE1 (human) = TIE1 (human) (UniProt P35590)
TXK (human) = TXK (human) (UniProt P42681)
TXK (human), sequence (P42681 whole entry, looked up): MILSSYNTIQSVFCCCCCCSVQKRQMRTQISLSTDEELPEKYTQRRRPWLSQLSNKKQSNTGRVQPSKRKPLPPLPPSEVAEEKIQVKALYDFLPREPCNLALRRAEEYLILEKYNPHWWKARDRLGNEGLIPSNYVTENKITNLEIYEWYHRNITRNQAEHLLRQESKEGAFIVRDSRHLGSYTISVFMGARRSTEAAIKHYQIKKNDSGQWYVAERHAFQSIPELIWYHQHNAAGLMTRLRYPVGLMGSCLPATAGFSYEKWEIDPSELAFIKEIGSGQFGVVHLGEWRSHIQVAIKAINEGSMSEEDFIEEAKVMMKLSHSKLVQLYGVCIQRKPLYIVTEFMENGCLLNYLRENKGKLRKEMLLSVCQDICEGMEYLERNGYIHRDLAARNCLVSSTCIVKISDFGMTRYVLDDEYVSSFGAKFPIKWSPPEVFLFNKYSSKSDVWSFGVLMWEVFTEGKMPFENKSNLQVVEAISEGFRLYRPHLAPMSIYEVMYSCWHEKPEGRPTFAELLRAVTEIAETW

[2] = biological target: TYK2 JH1 catalytic (human) (UniProt P29597)
ULK2 (human) = ULK2 (human) (UniProt Q8IYT8)

CAMK1G (human), sequence (Q96NX5 whole entry, looked up): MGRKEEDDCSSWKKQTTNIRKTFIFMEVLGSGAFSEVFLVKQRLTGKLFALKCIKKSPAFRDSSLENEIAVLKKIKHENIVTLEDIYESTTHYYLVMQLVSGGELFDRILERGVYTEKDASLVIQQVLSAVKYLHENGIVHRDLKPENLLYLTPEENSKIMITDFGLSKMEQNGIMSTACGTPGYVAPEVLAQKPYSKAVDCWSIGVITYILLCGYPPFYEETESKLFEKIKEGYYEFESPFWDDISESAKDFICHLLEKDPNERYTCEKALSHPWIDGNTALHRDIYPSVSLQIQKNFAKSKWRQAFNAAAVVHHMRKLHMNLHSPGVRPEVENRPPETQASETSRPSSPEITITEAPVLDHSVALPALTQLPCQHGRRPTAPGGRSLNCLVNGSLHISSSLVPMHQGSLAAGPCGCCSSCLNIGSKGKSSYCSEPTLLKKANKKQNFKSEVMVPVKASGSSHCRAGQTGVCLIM
CAMK2B (human), sequence (Q13554 whole entry, looked up): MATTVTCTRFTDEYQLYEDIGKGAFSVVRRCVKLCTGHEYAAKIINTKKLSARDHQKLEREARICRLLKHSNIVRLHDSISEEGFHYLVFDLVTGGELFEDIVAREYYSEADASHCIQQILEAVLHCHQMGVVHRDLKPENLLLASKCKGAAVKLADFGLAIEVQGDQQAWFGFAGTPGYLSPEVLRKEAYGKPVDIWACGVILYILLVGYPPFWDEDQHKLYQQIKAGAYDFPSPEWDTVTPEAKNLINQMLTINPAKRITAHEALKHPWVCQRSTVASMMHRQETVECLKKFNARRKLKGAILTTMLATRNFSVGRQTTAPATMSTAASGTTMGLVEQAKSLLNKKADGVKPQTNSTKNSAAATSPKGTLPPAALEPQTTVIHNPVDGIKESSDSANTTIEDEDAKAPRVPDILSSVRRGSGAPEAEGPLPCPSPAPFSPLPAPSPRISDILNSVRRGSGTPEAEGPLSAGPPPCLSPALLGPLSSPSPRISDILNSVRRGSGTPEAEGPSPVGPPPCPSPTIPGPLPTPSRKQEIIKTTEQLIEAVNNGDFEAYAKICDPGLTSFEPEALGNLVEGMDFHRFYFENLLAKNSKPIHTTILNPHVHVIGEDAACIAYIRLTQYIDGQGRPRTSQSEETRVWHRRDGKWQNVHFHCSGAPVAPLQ

Structure (SMILES)	kinase still bound, per cent of control (AURKC (human))	kinase still bound, per cent of control (BMPR1B (human))	kinase still bound, per cent of control (CAMK1D (human))	kinase still bound, per cent of control (CAMK1G (human))	kinase still bound, per cent of control (CAMK2B (human))	kinase still bound, per cent of control (CAMK4 (human))	kinase still bound, per cent of control (CDK18 (human))	kinase still bound, per cent of control (CDK9 (human))	kinase still bound, per cent of control (CLK1 (human))	kinase still bound, per cent of control (CLK4 (human))	kinase still bound, per cent of control (DCLK1 (human))	kinase still bound, per cent of control (FGR (human))	kinase still bound, per cent of control (IGF1R (human))	kinase still bound, per cent of control (IKBKE (human))	kinase still bound, per cent of control (MAP2K1 (human))	kinase still bound, per cent of control (MARK2 (human))	kinase still bound, per cent of control (NEK5 (human))	kinase still bound, per cent of control (PIM3 (human))	kinase still bound, per cent of control (PKMYT1 (human))	kinase still bound, per cent of control (PLK4 (human))	also measured
COc1cc(C)c(Sc2cnc(NC(=O)c3ccc(CNC(C)C(C)C)cc3)s2)cc1C(=O)N1CCN(C(C)=O)CC1 (stereo not given)	100%	100%	100%	100%	100%	100%	100%	100%	4.9%	33%	31%	100%	4.1%	100%	100%	100%	100%	100%	100%	100%	kinase still bound, per cent of control (CDK15 (human)): 100%; kinase still bound, per cent of control [1]: 100%; kinase still bound, per cent of control (MAP3K7 (human)): 100%; kinase still bound, per cent of control (MINK1 (human)): 100%; kinase still bound, per cent of control (PRKD2 (human)): 100%; kinase still bound, per cent of control (PTK2 (human)): 100%; kinase still bound, per cent of control (RPS6KA6 KD1 (human)): 100%; kinase still bound, per cent of control (RPS6KA6 KD2 (human)): 100%; kinase still bound, per cent of control (SLK (human)): 31%; kinase still bound, per cent of control (STK3 (human)): 100%; kinase still bound, per cent of control (STK32C (human)): 100%; kinase still bound, per cent of control (TIE1 (human)): 11%; kinase still bound, per cent of control (TXK (human)): 100%; kinase still bound, per cent of control [2]: 100%; kinase still bound, per cent of control (ULK2 (human)): 24%
COc1ccc(N(C(=O)Oc2cc(C(=O)Nc3cccc(C(F)(F)F)c3)ccc2C)c2ccnc(Nc3ccc(N4CCN(C)CC4)cc3)n2)c(OC)c1	100%	100%	100%	100%	100%	100%	100%	100%	100%	100%	100%	1.2%	100%	100%	100%	100%	100%	100%	100%	100%	kinase still bound, per cent of control (PRKD2 (human)): 100%; kinase still bound, per cent of control (PTK2 (human)): 4.6%; kinase still bound, per cent of control (RPS6KA6 KD1 (human)): 100%; kinase still bound, per cent of control (RPS6KA6 KD2 (human)): 100%; kinase still bound, per cent of control (SLK (human)): 0.15%; kinase still bound, per cent of control (STK3 (human)): 100%; kinase still bound, per cent of control (STK32C (human)): 100%; kinase still bound, per cent of control (TIE1 (human)): 3.8%; kinase still bound, per cent of control (TXK (human)): 0.65%; kinase still bound, per cent of control [2]: 27%

Source: the kinase profiling compilation of Christmann-Franck et al. (2016)
